Reference: patent US10487313B2, “Efficient induction of definitive endoderm from pluripotent stem cells” (Novo Nordisk A/S, priority 2011, dated 2019)

How the values were obtained:
[1] = tested on: SA121 hES and chIPS4 iPS cells; experiment: Quantitative real-time PCR of PS and DE markers (Brachyury, SOX17) during DE induction; type: cell-based, human; conditions: for Brachyury (PS) response timing compared to CHIR treatment: Wnt3a (200 ng/ml) or BIO (0.5 μM) 24 h instead of CHIR, upregulated D2
Method: Human embryonic stem (hES) cells SA121 and chIPS4 (Cellartis) were grown on human fibronectin (Sigma) in DEF culture media (Cellartis) with 30 ng/ml bFGF (Invitrogen) and 10 ng/ml Noggin (Peprotech) in 6-96 well plates. Cells were single cell passaged with Rock inhibitor Y-27632 (Calbiochem) and seeded at a density of 40000 cells/cm2 for experiments. Experiments were initiated 4 d after passage.
Confluent cultures were washed once in RPMI1640 (Invitrogen) before 24 hour pre-treatment with 0,5-7μM CHIR99021 (Stemgent) in RPMI. Control cells were left untreated in RPMI and D'Amour cells were either left in RPMI or treated with AA (Peprotech)+Wnt3a (R&D Systems) without pre-treatment depending on experimental setup.
After 24 hours, pretreated and control cells were washed once with RPMI before adding 100 ng/ml AA in RPMI. D'Amour cells were also treated with 100 ng/ml AA but with 0,2% FBS instead of B27. 24 h later, 2% B27 (Invitrogen) was added to the AA media for 2-3 d. Control cells were treated with B27 to prevent cell death and D'Amour cells with 2% FBS according to published protocol. Media was changed every day.
RNA samples were collected after 24 h pre-treatment (D1), after 1 day of AA treatment (D2) and after 1-2 d of AA+B27 treatment (D3-4). Total RNA was extracted with the Rneasy Plus Mini kit (Qiagen) and quantitative real-time PCR was performed using the StepOnePLus system (Applied Biosystems).
Undifferentiated SA121 hES and chIPS4 iPS cells in DEF media (DO) were cultured either in RPMI without CHIR (Ctrl D1) or treated for 24 h with CHIR in RPMI (CHIR D1). The cells were then washed to ensure absence of CHIR and then both conditions were treated with 1 d AA (Ctrl and CHIR d2). […] T fold inductions after 24 h CHIR treatment spanned between 500-100000 compared to undifferentiated cells (d0). T protein levels were also confirmed with ICC (FIG. 2C).
The efficiency levels for both T and SOX17 were highly robust (n>60) and confirmed with IHC and SOX17 quantifications (FIG. 2C and Table 2.). […] SOX17 expression peaked already after one day of AA treatment when cells were subjected to CHIR for 24 h before AA induction.
(§1) hES SA121 and ChIPS4 cells were treated with either CHIR (3 μM), BIO (0.5 μM), Wnt3a (200 ng/ml) or AA alone (100 ng/ml) for 24 h prior to AA addition to show CHIR specificity (d1). Additionally, D'Amour (protocol as described in Kroon et al 2008) was tested in parallel.
Chir was titrated at concentrations between 1-7 uM and analyzed after 24 h Chir treatment (D1) and after 2 d of following AA treatment (D3).

hES SA121 cells = experiment: CHIR specificity: cell survival after 24 h pre-treatment prior to AA addition; type: cell-based, human; conditions: 24 h pre-treatment with BIO (0.5 μM) or AA alone (100 ng/ml), then AA
Method: as §1
The data clearly illustrated that PS transition (upregulation of Brachyury) and DE induction (upregulation of SOX17) were both accelerated and much higher after CHIR treatment compared to pretreatment with growth factors such as AA and Wnt3a.

Row | Molecule | Brachyury (PS) response timing compared to CHIR treatment [1] | cell survival until day 3 (hES SA121 cells) | time of SOX17 induction peak after AA ([1]; CHIR-priming step 24 h then AA, versus AA alone)
1 | O=C1Nc2cc(Br)ccc2/C1=C1/Nc2ccccc2/C1=N\O [BIO] | delayed | did not survive until day 3 | –
2 | AA: Activin A, growth factor used for definitive endoderm induction | – | did not survive until day 3 | 3 to 4 days
3 | Wnt3a: the Wnt receptor ligand Wnt3a (protein, UniProt P56704 19-352, looked up) Protein Wnt-3a: SYPIWWSLAVGPQYSSLGSQPILCASIPGLVPKQLRFCRNYVEIMPSVAEGIKIGIQECQHQFRGRRWNCTTVHDSLAIFGPVLDKATRESAFVHAIASAGVAFAVTRSCAEGTAAICGCSSRHQGSPGKGWKWGGCSEDIEFGGMVSREFADARENRPDARSAMNRHNNEAGRQAIASHMHLKCKCHGLSGSCEVKTCWWSQPDFRAIGDFLKDKYDSASEMVVEKHRESRGWVETLRPRYTYFKVPTERDLVYYEASPNFCEPNPETGSFGTRDRTCNVSSHGIDGCDLLCCGRGHNARAERRREKCRCVFHWCCYVSCQECTRVYDVHTCK | delayed | – | –
